According to the supplement of paper PMC10307832:

Key:
Assay in all cases: relative viability (nuclei count vs DMSO), 5 days (fraction); higher = more cells survive
[1] = compound: OCc1c[nH]c2ccccc12 [Indole-3-carbinol] + Nc1nc2[nH]cc(CCc3ccc(C(=O)N[C@@H](CCC(=O)O)C(=O)O)cc3)c2c(=O)[nH]1 [Pemetrexed] (partner 0.2 µM)
Method in brief: (§1)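 Nuclei were stained with Hoechst during a one-step fixation (final 0.05% Triton X-100, 1% formaldehyde, 1 ug/ml Hoechst) carried out 5 days after dosing, then counted on 4× images. The cells, lung cancer lines in 1536-well plates, had been dosed by pin tool the day after seeding with one drug alone or a fixed anchor-drug dose plus five library-drug doses (not always all listed) in √10 steps. Relative viability is the nuclei count in treated wells divided by that in vehicle wells, and each value is the median of duplicate plates.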

[2] = compound: OCc1c[nH]c2ccccc12 [Indole-3-carbinol] + CS(=O)(=O)CCNCc1ccc(-c2ccc3ncnc(Nc4ccc(OCc5cccc(F)c5)c(Cl)c4)c3c2)o1 [Lapatinib] (partner 2 µM)
Method in brief: as §1

[3] = compound: OCc1c[nH]c2ccccc12 [Indole-3-carbinol] + O=C(c1cc(Cc2n[nH]c(=O)c3ccccc23)ccc1F)N1CCN(C(=O)C2CC2)CC1 [Olaparib] (partner 8 µM)
Method in brief: as §1

[4] = compound: OCc1c[nH]c2ccccc12 [Indole-3-carbinol] + N=C(N)NC(=N)NCCc1ccccc1 [Phenformin] (partner 250 µM)
Method in brief: as §1

[5] = compound: OCc1c[nH]c2ccccc12 [Indole-3-carbinol] + CC(=O)c1c(C)c2cnc(Nc3ccc(N4CCNCC4)cn3)nc2n(C2CCCC2)c1=O [Palbociclib] (partner 0.5 µM)
Method in brief: as §1

Cell Line	relative viability ([1]; first compound 0.253 µM)	relative viability ([1]; first compound 0.8 µM)	relative viability ([1]; first compound 2.53 µM)	relative viability ([1]; first compound 8 µM)	relative viability ([2]; first compound 0.253 µM)	relative viability ([2]; first compound 0.8 µM)	relative viability ([2]; first compound 2.53 µM)	relative viability ([2]; first compound 8 µM)	relative viability ([3]; first compound 0.253 µM)	relative viability ([3]; first compound 0.8 µM)	relative viability ([3]; first compound 2.53 µM)	relative viability ([3]; first compound 8 µM)	relative viability ([4]; first compound 0.253 µM)	relative viability ([4]; first compound 0.8 µM)	relative viability ([4]; first compound 2.53 µM)	relative viability ([4]; first compound 8 µM)	relative viability ([5]; first compound 0.253 µM)	relative viability ([5]; first compound 0.8 µM)	relative viability ([5]; first compound 2.53 µM)	relative viability ([5]; first compound 8 µM)
NCI-H1755	0.422	0.436	0.435	0.386	1.06	0.978	1.07	1.03	0.894	0.926	0.929	0.872	0.645	0.594	0.636	0.625	0.489	0.444	0.487	0.423
NCI-H1792	0.984	0.993	0.704	0.858	0.913	0.945	0.903	0.93	0.612	0.532	0.553	0.3	0.191	0.26		0.194	0.74	0.634	0.675	0.697
NCI-H1793	0.934	0.773	1.03	0.761	1.18	0.621	0.702	0.623	0.947	0.917	0.505	0.764	0.438	0.409	0.499	0.339	0.346	0.281	0.298	0.315
NCI-H1915	0.466	0.527	0.513	0.511	1.01	0.968	0.993	0.972	0.253	0.243	0.282	0.25	0.383	0.365	0.368	0.354	0.5	0.521	0.532	0.486
NCI-H1944	0.663	0.539	0.649	0.641	0.856	0.606	0.922	0.843	0.38	0.348	0.388	0.368	0.202	0.195	0.202	0.199	0.338	0.279	0.304	0.311
NCI-H1975	0.288	0.294	0.293	0.311	0.966	0.847	0.936	0.876	0.801	0.847	0.822	0.77	0.391	0.413	0.419	0.417	0.699	0.704	0.554	0.644
NCI-H1993	0.59	0.69	0.548	0.567	0.827	0.839	0.791	0.773	1.01	1.12	0.98	0.927	0.516	0.523	0.516	0.549	0.713	0.635	0.664	0.521
NCI-H2009	1.03	1.07	1.07	1.06	1.02	0.929	0.695	0.872	0.674	0.768	0.7	0.649	0.512	0.515	0.506	0.465	0.213	0.188	0.169	0.226
NCI-H2023	0.245	0.269	0.252	0.258	0.817	0.882	0.778	0.891	0.471	0.564	0.518	0.422	0.454	0.426	0.434	0.399	0.396	0.469	0.334	0.375
NCI-H2085	0.965	0.927	0.932	0.758	0.855	0.789	0.8	0.828	0.9	0.844	0.773	0.691	0.684	0.85	0.787	0.624	0.469	0.492	0.451	0.439
NCI-H2087	0.706	0.703	0.705	0.63	1.32	0.952	1.12	0.814	0.575	0.631	0.625	0.541	0.45	0.525	0.466	0.386	0.193	0.278	0.27	0.262
NCI-H2126	0.664	0.746	0.624	0.651	0.761	0.741	0.78	0.748	0.859	1	0.934	0.87	0.51	0.518	0.525	0.512	0.299	0.366	0.362	0.34
NCI-H2170	0.286	0.24	0.292	0.273	0.281	0.28	0.253	0.289	0.633	0.617	0.597	0.586	0.451	0.385	0.432	0.418	0.384	0.375	0.41	0.42
NCI-H2228	0.368	0.335	0.334	0.344	1.12	1.17	1.2	1.32	0.659	0.707	0.532	1.01	0.327	0.354	0.365	0.383	0.75	0.771	0.645	0.78
NCI-H2347	0.425	0.415	0.437	0.41	0.937	1.03	1.08	0.672	0.624	0.582	0.634	0.549	0.405	0.34	0.496	0.435	0.426	0.471	0.419	0.407
NCI-H2405	1.15	1.04	0.972	1.03	1.06	1.08	1.16	1.02	0.907	0.889	0.908	0.823	0.426	0.376	0.391	0.44	0.513	0.554	0.553	0.491
